Consider seven compounds from patent US20010046684A1, “Methods of structure-based drug design using MS/MNR” (priority 2000, published 2001).

As a reminder, the IC50 is the concentration that gives 50% inhibition.

For assay [1], the target named is T1, MMP-1 (Homo sapiens, UniProt P03956).
T1 construct: made in house
T1 sequence (P03956 101-269 limits assumed): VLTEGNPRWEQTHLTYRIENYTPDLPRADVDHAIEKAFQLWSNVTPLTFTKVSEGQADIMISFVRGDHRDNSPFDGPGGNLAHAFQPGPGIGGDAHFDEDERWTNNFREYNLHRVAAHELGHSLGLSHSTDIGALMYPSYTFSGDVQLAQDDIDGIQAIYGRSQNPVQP
The assay can be described thus: 2D 1H-15N HSQC NMR chemical shift perturbation of 15N-MMP-1. The format is binding. The note with it: 0.2 mM 15N-MMP-1, compound 0.2-4.0 mM, pH 6.5, 35° C. As to the method: MMP-1 was labeled as described in Moy, J. Biomol. NMR, Vol. 10: 9-19 (1997). […] The 2D ^1H—^15N HSQC spectra were recorded with 256 complex points in t1, 2048 real points in t2, and 192 scans per increment. Spectra windows for t1 and t2 were 1723.7 and 8064.5 Hz, respectively, with the carrier at 4.75 and 115.2 ppm, respectively. Data were processed and analyzed using NMRPipe, NMRWish [F. Delaglio, S. Grzesiek, G. W. Vuister, G. Zhu, J. Pfeifer, and A. Bax J. Biomol. NMR 6, 277 (1995). ] and PIPP [D. S. Garrett, R. Powers, A. M. Gronenborn, and G. M. Clore J. Magn. Reson. 95, 214-20 (1991).] on a Sun Ultra 10 workstation. […] (FIG. 4A, 4B, 4C), i.e. stronger binding contributes to greater perturbations and weaker binding to less perturbations.

The target in assay [2] is T2, MMP-1 (Homo sapiens, UniProt P03956).
T2 sequence (P03956 100-469): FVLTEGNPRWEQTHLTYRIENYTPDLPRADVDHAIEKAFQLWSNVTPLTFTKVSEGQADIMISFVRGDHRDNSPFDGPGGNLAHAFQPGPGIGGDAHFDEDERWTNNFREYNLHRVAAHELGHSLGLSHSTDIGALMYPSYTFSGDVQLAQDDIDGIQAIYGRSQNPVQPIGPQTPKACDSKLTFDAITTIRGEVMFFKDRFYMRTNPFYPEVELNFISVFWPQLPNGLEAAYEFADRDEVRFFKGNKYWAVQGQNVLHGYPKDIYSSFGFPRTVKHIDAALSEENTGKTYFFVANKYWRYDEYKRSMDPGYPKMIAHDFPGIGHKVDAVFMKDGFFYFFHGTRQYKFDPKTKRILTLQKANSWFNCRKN
The following applies: Inhibitors of MMP-1; compounds having known affinities, previously tested; cited from earlier work.

Assay [3] addresses T2, MMP-1. Description: Gel-filtration (Sephedex G25) / ESI mass spectral analysis of binding to MMP-1. The note with it: 1 mM compound, 0.1 mM MMP-1, pH 6.5, room temperature, 30 minutes; unbound compound alone is retained. The procedure: 1 mM each of compounds 1, 2 and 3 (Table 1) were dissolved in DMSO and each incubated alone or in the presence of MMP-1 at a 0.1 mM in a buffer consisting of 20 mM Tris, 100 mM NaCl, 5 mM CaCl2, 0.1 mM ZnCl2, 2 mM NaN3 and 3.5 mM DTT at pH 6.5 at room temperature for 30 minutes. The final concentration of DMSO in the MMP-1:compound mixture was 5%. A total volume of 25 μl of each sample was loaded on a Sephedex G25 column in a Millipore multiscreen filtration system composed of a 0.65 μm hydrophilic durapore filter. The samples were eluted using centrifugation (15,000×g for 3 minutes). Samples were collected and analyzed by mass spectroscopy using automated ESI/MS methods in both positive and negative ionization modes with a Micromass LCT quadrapole time of flight mass spectrometer and Quattro I triple-quadrapole mass spectrometer each equipped with a Gilson 215 liquid handler.

As for `COc1ccc(S(=O)(=O)N(CC(=O)O)c2c(C)cccc2C(=O)NO)cc1` [Compound 3, [(2-Hydroxycarbamoyl-6-methyl-phenyl)-(4-methoxy-benzenesulfonyl)-amino)-acetic acid], the “Chemical shift perturbations in 2D 1H-15N HSQC spectrum of MMP-1” value on MMP-1 [1] is “induce chemical shift perturbations for residues in the vicinity of the catalytic Zn and S1′ pocket in the MMP-1 active site”. Further, the half-maximal inhibitory concentration (IC50) at MMP-1 [2] was 89000 nM. Also, on MMP-1 [3], the “Elution of compound through size-exclusion column in presence of MMP-1 (binding detected by ESI/MS)” value (from here on “Elution”) was “compound bound to MMP-1 is eluted”. Regarding `Cc1cc(Br)cc(C(=O)NO)c1N(C)S(=O)(=O)c1ccc2ccccc2c1` [Compound 11, 5-Bromo-N-hydroxy-3-methyl-2-[methyl-(naphthalene-2-sulfonyl)-amino]-benzamide], the IC50 on MMP-1 [2] is 1100 nM. Take `COc1ccc(S(=O)(=O)N(Cc2cccnc2)c2c(C(=O)O)cccc2C(=O)NO)cc1` [Compound 2, N-Hydroxy-2-[(4-methoxy-benzenesulfonyl)-pyridin-3-ylmethyl-amino]-isophthalamic acid]: the “Chemical shift perturbations in 2D 1H-15N HSQC spectrum of MMP-1” value on MMP-1 [1] was “induce chemical shift perturbations for residues in the vicinity of the catalytic Zn and S1′ pocket in the MMP-1 active site”. Besides, the IC50 at MMP-1 [2] is 9900 nM. For the same compound, the “Elution” value on MMP-1 [3] is recorded as “compound bound to MMP-1 is eluted”.

In the case of “3-[4-(2-Azepan-1-yl-ethoxy)-phenyl]-N-hydroxy-2-(4-methoxy-benzenesulfonyl)-2-propionamide [Compound 13]”, at MMP-1 [2], the IC50 is 540 nM.

Regarding `COc1ccc(S(=O)(=O)N(Cc2cccnc2)[C@@H](C(=O)NO)C(C)C)cc1` [Compound 1, N2-(4-Methoxy-benzenesulfonyl)-N2-[(pyridin-3-yl)methyl]-N-hydroxy-D-valinamide], the “Elution” value at MMP-1 [3] is “compound bound to MMP-1 is eluted”. Turning to `COc1ccc(S(=O)(=O)N(Cc2ccccc2)c2ccc(C)cc2C(=O)NO)cc1` [Compound 4, 2-[Benzyl-(4-methoxy-benzenesulfonyl)-amino]-N-hydroxy-5-methyl-benzamide], the IC50 at MMP-1 [2] was 408 nM. For `COc1ccc(S(=O)(=O)C(CCC(C)C)(Cc2cccnc2)C(=O)NO)cc1` (centres unmarked) [Compound 7, 2-(4-Methoxy-benzenesulfonyl)-5-methyl-2-pyridin-3-ylmethyl-hexanoic acid hydroxyamide], the IC50 at MMP-1 [2] is 760 nM.
